The results in this text go back to patent US5578622A, “Isothiazole derivatives and their uses” (Asamura Patent Office, priority 1994, dated 1996).

In assay [1] the test system is Aspergillus fumigatus TIMM 0063. Kind of assay: In vitro antimycotic activity on Aspergillus fumigatus. The settings on record: TIMM0063, 10 (ppm), Casitone agar, 37° C., 48 hours, read-out: Antimycotic activity (growth inhibitory rate), A.fumigatus. The assay is classed as cell-based. How it is done: 3-2 In vitro antimycotic activity on Aspergillus fumigatus.
To Aspergillus fumigatus TIMM 0063 precultured at 37° C. for 48 hours on a potato dextrose agar (PDA) slant medium was added a sterilized physiological salt solution containing 0.1%(W/V) Tween 80. After conidia were made free from the solution, the solution was filtered through a sterilized two-sheet gauze to remove the mycelium mass. The number of the conidia in the resulting suspension was counted with a globulimeter and adjusted so as to be 1×10^5 conidia/ml with a sterilized physiological salt solution containing 0.1%(W/V) Tween 80. This solution was used as an inoculum solution. Casitone agar plate medium containing the DMSO solution of the test compound in a rate of 1% (V/V) was inoculated with the inoculum solution at four places thereof with a microplanter, and cultured with the medium allowed to stand at 37° C. for 48 hours. After culture, the diameter of the mycelium disks cultivated at the four inoculated parts was measured, and its mean value was obtained. The growth inhibitory rate was calculated according to the following equation, and the antimycotic activity was shown in the same manner as in Test Example 3-1.
Growth inhibitory rate (%)=(1-W'/Y')×100
Y': Diameter of mycelium disk of DMSO control group
W': Diameter of mycelium disk of test compound group

In assay [2] the test system is Gibberella fujikuroi ("Bakanae" disease of rice). As to the kind of experiment: Test for rice seed-disinfecting effect. The assay is classed as in vivo. The settings on record: Fusarium fujikuroi, 504 h, seed immersion 25° C. 24 hours, three weeks after treatment, read-out: Controlling effect (control of disease), "Bakanae" disease of rice. How it is done:
2-1 Test for rice seed-disinfecting effect
Unhulled rice infected with Gibberella fujikuroi ("Bakanae" disease of rice) was immersed in a test compound adjusted to 1000 ppm at 25° C. for 24 hours. Water was lightly swished off the seed, which was then sowed and germinated for two days. Three weeks after treatment with the solution containing the compound, the rate of the infected seedlings was examined, and the control of disease was calculated by comparison with that of the untreated plot. The control of disease was shown as a controlling effect on the basis of the following standard.

Assay [3] relates to Pseudoperonospora cubensis. As to the kind of experiment: Test for controlling effect on downy mildew of cucumber. The assay is classed as in vivo. The settings on record: 168 h, 200 ppm spray, one day before inoculation, cucumber 2-leaf stage, read-out: Controlling effect (control of disease), Downy mildew of cucumber. As for the experimental part:
2-2 Test for controlling effect on downy mildew of cucumber (Pseudoperonospora cubensis) A test compound adjusted to 200 ppm was sprayed onto cucumber at the 2-leaf stage cultivated in pots. After one day, the cucumber was inoculated by spraying the zoospore suspension of Pseudoperonospora cubensis. After inoculation, the cucumber was placed in a 25° C.-humid room for 1 day and then in a greenhouse for 6 days. Thus, the cucumber was made to be infected with downy mildew. The control of disease of the test compound is calculated by comparing the degree of infection of each leaf with that in the untreated plot. The control of disease is shown as a controlling effect in the same manner as in Test Example 2-1.

The test system of the next assay is Rhizoctonia solani. Kind of assay: Test for controlling effect on sheath blight of rice. The assay is classed as in vivo. Particulars: 120 h, 200 ppm spray, 24 hours after inoculation, rice 4-leaf stage, five days after inoculation, read-out: Controlling effect (control of disease), Sheath blight of rice. How it is done:
2-3 Test for controlling effect on sheath blight of rice (Rhizoctonia solani) Rice seedlings at the 4-leaf stage were inoculated with the mycelium of sheath blight of rice (Rhizoctonia solani). After 24 hours, a test medicine solution adjusted to 200 ppm was sprayed onto the seedlings. After air-drying, the seedlings were placed in a humid room for 24 hours where the temperature was kept at 28° C. and humidity was kept at 98%. Thereafter, the seedlings were transferred to a greenhouse, and five days after inoculation, the degree of infected area was examined. The control of disease was calculated by comparison with that in the untreated plot. The control of disease is shown as a controlling effect in the same manner as in Test Example 2-1.

Assay [4] relates to Candida albicans IFO 1270. As to the kind of experiment: In vitro antimycotic activity on Candida albicans. The assay is classed as cell-based. Particulars: IFO1270, 10 (ppm), SGB, 37° C., 48 hours, turbidity at 650 nm, read-out: Antimycotic activity (growth inhibitory rate), C.albicans. How it is done: 3-1 In vitro antimycotic activity on Candida albicans
Candida albicans IFO 1270 pre-cultured on a Sabouraud's glucose agar (SGA) plate medium at 37° C. […] was suspended in a sterilized physiological salt solution. The number of fungi in the resulting suspension was counted with a globulimeter, and adjusted so as to be 1×10^7 cell/ml with a sterilized physiological salt solution. This solution was used as an inoculum solution. Thereafter, 0.1 ml of this solution and 0.1 ml of a dimethyl sulfoxide (DMSO) solution of the test compound were added to 9.8 ml of Sabouraud's glucose broth (SGB), and shake-cultured at 37° C. for 48 hours. After culture, the medium turbidity was measured at 650 nm, and the growth-inhibitory rate of the fungus was calculated according to the following equation.
Growth inhibitory rate (%)=(1-W/Y)×100
Y: Medium turbidity of DMSO control group
W: Medium turbidity of test compound group
From this inhibitory rate, the antimycotic activity was shown by the symbols A to D. The test results of the test compounds are shown in Table 4.

The test system of assay [5] is Trichophyton mentagrophytes IFO 5810. As to the kind of experiment: In vitro antimicrobial activity on Trichophyton mentagrophytes. The assay is classed as cell-based. Further details: key: A: Fungus is not observed at all with the naked eye.; B: Presence of fungus is slightly observed on shaking the test tube.; C: Fungus of about less than one-fourth that of the DMSO control group is observed with the naked eye.; Fungus of about less than half that of the DMSO control group is observed with the naked eye. Particulars: 10 (ppm); SGB, 27° C., 7 days. How it is done:
3-3 In vitro antimicrobial activity on Trichophyton mentagrophytes To Trichophyton mentagrophytes IFO 5810 precultured at 27° C. for 2 to 3 weeks on a Sabouraud's glucose agar (SGA) slant medium was added a sterilized physiological salt solution containing 0.1% (W/V) Tween 80. After conidia were made free from the solution, the solution was filtered through a sterilized two-sheet gauze to remove the mycelium mass. The number of the conidia in the resulting suspension was counted with a globulimeter and adjusted so as to be 1×10^6 conidia/ml with a sterilized physiological salt solution containing 0.1%(W/V) Tween 80. This solution was used as an inoculum solution. Thereafter, 0.1 ml of this solution and 0.1 ml of the dimethyl sulfoxide (DMSO) solution of the test compound were added to 9.8 ml of Sabouraud's glucose broth (SGB), and shake-cultured at 27° C. for 7 days.

Regarding `CC(C)Sc1snc(OCC#CI)c1C#N` [Compound 4], the inhibition of growth at 10 µg/mL in assay [1] and in assay [4] was 100% in each case. Besides, the pest or weed control at 1000 ppm in assay [2] was in the range of 95 to 100%. Moreover, the pest or weed control at 200 ppm was in the range of 95 to 100% in assay [3] and 80 to 94% in the assay on Rhizoctonia solani. Further, the “Antimycotic activity (degree of growth, naked eye), T.mentagrophytes” value (from here on “Antimycotic activity”) in assay [5] is given as “A”.

`N#Cc1c(OC(F)F)nsc1OCC#CI` [Compound 50]: the inhibition of growth at 10 µg/mL in assay [1] and in assay [4] was 100% throughout. Besides, the pest or weed control at 1000 ppm in assay [2] was 95 to 100%. The pest or weed control at 200 ppm (in assay [3]; with Rhizoctonia solani) was 95 to 100% each time. Besides, the “Antimycotic activity” value in assay [5] is on record as “A”.

For `COc1nsc(SC(C)OCC#CI)c1C#N` (stereo not drawn) [Compound 125], the inhibition of growth at 10 µg/mL in assay [1] and in assay [4] was 100% each time. Further, in assay [2], the pest or weed control at 1000 ppm was 95 to 100%. The pest or weed control at 200 ppm (in assay [3]; with Rhizoctonia solani) was 95 to 100% each time. The “Antimycotic activity” value in assay [5] is “A”.

With `CSc1snc(SCOCC#CI)c1C#N` [Compound 128, 3-(3-iodo-2-propynyloxymethylthio)-4-cyano-5-methylthioisothiazole], the inhibition of growth at 10 µg/mL in assay [1] and in assay [4] was 100% each time. Further, the pest or weed control at 1000 ppm in assay [2] fell in the range of 80 to 94%. The pest or weed control at 200 ppm in assay [3] was in the range of 95 to 100%; in the assay with Rhizoctonia solani it was 60 to 79%. For the same compound, the “Antimycotic activity” value in assay [5] is given as “A”.

In the case of `N#CCOc1nsc(SCOCC#CI)c1C#N` [Compound 63], the inhibition of growth at 10 µg/mL in assay [1] and in assay [4] was 100% throughout. Besides, the pest or weed control at 1000 ppm in assay [2] was in the range of 95 to 100%. The pest or weed control at 200 ppm in assay [3] was 95 to 100%; in the assay with Rhizoctonia solani, 80 to 94%. In addition, the “Antimycotic activity” value in assay [5] was “A”.
